{
  "source": "patent US12605350B2",
  "about": "“Composition for preventing, ameliorating, or treating disease caused by nitration of tyrosine in proteins comprising tyrosine as effective component” (INDUSTRY-ACADEMIC COOPERATION FOUNDATION GYEONGSANG …, priority 2020, dated 2026)",
  "target": "T1, human recombinant MnSOD (Homo sapiens, UniProt P04179)",
  "T1 sequence (P04179 25-222)": "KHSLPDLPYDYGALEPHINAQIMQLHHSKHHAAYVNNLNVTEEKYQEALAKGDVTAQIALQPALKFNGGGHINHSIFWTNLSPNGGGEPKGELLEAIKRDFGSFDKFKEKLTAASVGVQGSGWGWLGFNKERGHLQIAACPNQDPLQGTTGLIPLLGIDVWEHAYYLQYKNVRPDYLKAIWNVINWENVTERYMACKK",
  "assay": "SOD activity of human recombinant MnSOD treated with peroxynitrite",
  "assay_type": "biochemical",
  "details": "human recombinant MnSOD with peroxynitrite (2.1 mM PN), 10 minutes on ice",
  "procedure": "Peroxynitrite was diluted by 40 times with 0.3 M NaOH, and absorbance at 302 nm was measured. Then, it was quantified by using the molar absorption coefficient of peroxynitrite) (ε302=1670 M^−1 cm^−1).\nFor the measurement of SOD activity, SOD colorimetric activity kit by ThermoFisher was used. Human recombinant MnSOD within reference SOD range, peptide, and peroxynitrite were admixed with one another, and the reaction was allowed to occur on ice for 10 minutes. To a 96-well plate, 10 μl of reference SOD or the reaction mixture, and 50 μl of a substrate solution provided in the kit were added, and the absorbance at 450 nm was measured. After adding 25μl of xanthine oxidase provided in the kit and allowing the reaction to occur for 20 minutes at room temperature, absorbance at 450 nm was measured. By using the data obtained by subtracting the first-measured absorbance from the second-measured absorbance, SOD activity was obtained.",
  "data": [
    {"smiles": "N[C@H](Cc1ccc(O)cc1)C(=O)O", "note": "[D-tyrosine]", "values": [
      {"measurement": "MnSOD (SOD) activity", "result": "higher MnSOD activity"}
    ]}
  ]
}
